The target of experiment [1] is T1, Potassium voltage-gated channel subfamily A member 3 (Homo sapiens, UniProt P22001). It counts as cell-based, CHO-K1.
Experiment [2] addresses T1, Potassium voltage-gated channel subfamily A member 3. Nature of the experiment: cell-based. Details: species or system Blood.
Experiment [3] shares this target. Details: species or system Blood.

For orientation: IC50 means the concentration that inhibits the measured activity by half.

T1 sequence (P22001 whole entry): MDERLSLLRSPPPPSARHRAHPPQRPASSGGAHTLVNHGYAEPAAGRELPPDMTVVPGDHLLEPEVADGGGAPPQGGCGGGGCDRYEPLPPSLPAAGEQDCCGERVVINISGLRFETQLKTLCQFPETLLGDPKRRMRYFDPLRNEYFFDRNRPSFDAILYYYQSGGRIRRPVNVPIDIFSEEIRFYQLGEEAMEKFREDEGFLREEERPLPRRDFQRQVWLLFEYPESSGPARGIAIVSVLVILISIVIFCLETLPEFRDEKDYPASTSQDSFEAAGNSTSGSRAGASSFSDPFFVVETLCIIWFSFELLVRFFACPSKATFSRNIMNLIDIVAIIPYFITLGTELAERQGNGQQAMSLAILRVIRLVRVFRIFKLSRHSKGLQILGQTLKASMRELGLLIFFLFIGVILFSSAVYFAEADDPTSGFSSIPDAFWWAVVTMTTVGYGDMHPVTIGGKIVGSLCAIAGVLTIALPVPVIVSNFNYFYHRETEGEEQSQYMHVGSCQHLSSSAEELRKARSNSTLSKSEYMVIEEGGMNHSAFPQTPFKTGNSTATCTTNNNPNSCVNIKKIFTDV

Turning to `CC[C@H](C)[C@@H]1NC(=O)[C@@H](NC(=O)[C@H](CO)NC(=O)[C@@H](N)CCCNC(=N)N)CSSC[C@@H](C(=O)O)NC(=O)[C@H]([C@@H](C)O)NC(=O)CNC(=O)[C@@H]2CSSC[C@@H]3NC(=O)[C@H](CCC(N)=O)NC(=O)[C@H](Cc4ccccc4)NC(=O)[C@H](C)NC(=O)[C@H]([C@@H](C)O)NC(=O)[C@H](CSSC[C@H](NC(=O)[C@H](Cc4ccccc4)NC(=O)[C@H](CO)NC(=O)[C@H](CC(C)C)NC(=O)[C@H](CCCNC(=N)N)NC(=O)[C@H](Cc4ccc(O)cc4)NC(=O)[C@H](CCCCN)NC(=O)[C@H](CCSC)NC(=O)[C@H](CO)NC(=O)[C@H](Cc4cnc[nH]4)NC(=O)[C@H](CCCCN)NC3=O)C(=O)N[C@@H](CCCNC(=N)N)C(=O)N[C@@H](CCCCN)C(=O)N[C@@H]([C@@H](C)O)C(=O)N2)NC(=O)[C@H](CCCNC(=N)N)NC(=O)[C@H](CO)NC(=O)[C@H](CCC(=O)O)NC(=O)[C@@H]2CCCN2C(=O)[C@H]([C@@H](C)CC)NC(=O)[C@H]([C@@H](C)O)NC(=O)[C@H](CC(=O)O)NC1=O`, the figures for the 50% inhibitory concentration (IC50) in experiment [1], in experiment [2] and in experiment [3] were 0.146 nM, 0.037 nM and 0.056 nM, respectively.

On to `CC[C@H](C)[C@@H]1NC(=O)[C@@H](NC(=O)[C@H](CO)NC(=O)[C@@H](N)CCCNC(=N)N)CSSC[C@@H](C(=O)O)NC(=O)[C@H]([C@@H](C)O)NC(=O)CNC(=O)[C@@H]2CSSC[C@@H]3NC(=O)[C@H](CCC(N)=O)NC(=O)[C@H](Cc4ccccc4)NC(=O)[C@H](C)NC(=O)[C@H]([C@@H](C)O)NC(=O)[C@H](CSSC[C@H](NC(=O)[C@H](Cc4ccccc4)NC(=O)[C@H](CO)NC(=O)[C@H](CC(C)C)NC(=O)[C@H](CCCNC(=N)N)NC(=O)[C@H](Cc4ccc(O)cc4)NC(=O)[C@H](CCCCN)NC(=O)[C@H](CCCNC(=N)N)NC(=O)[C@H](CO)NC(=O)[C@H](Cc4cnc[nH]4)NC(=O)[C@H](CCCCN)NC3=O)C(=O)N[C@@H](CCCNC(=N)N)C(=O)N[C@@H](CCCCN)C(=O)N[C@@H]([C@@H](C)O)C(=O)N2)NC(=O)[C@H](CCCNC(=N)N)NC(=O)[C@H](CO)NC(=O)[C@H](CCCCN)NC(=O)[C@@H]2CCCN2C(=O)[C@H]([C@@H](C)CC)NC(=O)[C@H]([C@@H](C)O)NC(=O)[C@H](CC(=O)O)NC1=O`, for which the IC50 in experiment [1] came to 0.259 nM; in experiment [2] it was 1.49 nM; in experiment [3], 3.08 nM.

Regarding `CC[C@H](C)[C@@H]1NC(=O)[C@@H](NC(=O)[C@H](CO)NC(=O)[C@@H](N)CCCNC(=N)N)CSSC[C@@H](C(=O)O)NC(=O)[C@H]([C@@H](C)O)NC(=O)CNC(=O)[C@@H]2CSSC[C@@H]3NC(=O)[C@H](CCC(N)=O)NC(=O)[C@H](Cc4ccccc4)NC(=O)[C@H](C)NC(=O)[C@H]([C@@H](C)O)NC(=O)[C@H](CSSC[C@H](NC(=O)[C@H](Cc4ccccc4)NC(=O)[C@H](CO)NC(=O)[C@H](CC(C)C)NC(=O)[C@H](CCCNC(=N)N)NC(=O)[C@H](Cc4ccc(O)cc4)NC(=O)[C@H](CCCCN)NC(=O)[C@H](CCSC)NC(=O)[C@H](CO)NC(=O)[C@H](Cc4cnc[nH]4)NC(=O)[C@H](CCCCN)NC3=O)C(=O)N[C@@H](CCCNC(=N)N)C(=O)N[C@@H](CCC(=O)O)C(=O)N[C@@H]([C@@H](C)O)C(=O)N2)NC(=O)[C@H](CCCNC(=N)N)NC(=O)[C@H](CO)NC(=O)[C@H](CCCCN)NC(=O)[C@@H]2CCCN2C(=O)[C@H]([C@@H](C)CC)NC(=O)[C@H]([C@@H](C)O)NC(=O)[C@H](CC(=O)O)NC1=O`, the IC50 came out at 0.278 nM in experiment [1], 0.02 nM in experiment [2] and 0.043 nM in experiment [3].

Values taken from ChEMBL document CHEMBL3608278 (J Med Chem, 2015).
